In brackets after ≈: the same amount, converted by molar mass. Activity calls are given as the source filed them. No cut-off for these calls is given here.
Assays:
MCF7 = assay: cells; details: Homo sapiens, MCF7, read-out: pIC50 (converted)
Description: Antiproliferative activity against human MCF7 cells

Progesterone receptor [1] = target: T1, Progesterone receptor (Homo sapiens, UniProt P06401); assay: Agonist activity at progesterone receptor in human MCF7 cells; assay type: cell-based
T1 sequence (P06401 whole entry): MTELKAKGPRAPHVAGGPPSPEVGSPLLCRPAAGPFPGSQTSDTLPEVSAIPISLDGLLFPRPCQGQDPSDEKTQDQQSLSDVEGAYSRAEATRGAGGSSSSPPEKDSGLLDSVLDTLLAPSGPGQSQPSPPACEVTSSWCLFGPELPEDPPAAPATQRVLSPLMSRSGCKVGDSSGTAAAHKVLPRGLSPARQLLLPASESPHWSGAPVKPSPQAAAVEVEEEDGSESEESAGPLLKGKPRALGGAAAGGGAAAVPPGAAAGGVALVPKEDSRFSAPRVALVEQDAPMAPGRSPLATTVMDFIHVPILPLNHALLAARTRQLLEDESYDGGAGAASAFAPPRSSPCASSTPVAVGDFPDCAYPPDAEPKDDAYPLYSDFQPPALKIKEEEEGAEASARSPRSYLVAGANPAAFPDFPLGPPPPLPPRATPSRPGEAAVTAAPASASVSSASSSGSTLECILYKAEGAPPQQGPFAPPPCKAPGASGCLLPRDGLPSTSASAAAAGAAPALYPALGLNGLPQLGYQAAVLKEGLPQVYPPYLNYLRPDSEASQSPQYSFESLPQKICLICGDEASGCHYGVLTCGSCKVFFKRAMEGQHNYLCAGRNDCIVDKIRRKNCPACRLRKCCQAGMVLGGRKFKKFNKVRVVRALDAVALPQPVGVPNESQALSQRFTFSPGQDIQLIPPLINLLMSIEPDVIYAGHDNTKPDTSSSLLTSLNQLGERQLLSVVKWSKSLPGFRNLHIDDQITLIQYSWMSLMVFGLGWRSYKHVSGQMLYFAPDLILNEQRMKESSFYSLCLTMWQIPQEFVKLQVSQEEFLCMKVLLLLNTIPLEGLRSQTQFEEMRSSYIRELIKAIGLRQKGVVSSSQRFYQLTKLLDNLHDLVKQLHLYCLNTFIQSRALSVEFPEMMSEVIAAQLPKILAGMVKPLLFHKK

[2] = target: T2, Progesterone receptor (Homo sapiens) (UniProt P06401); assay: Agonist activity at progesterone receptor (unknown origin) at 100 uM
T2 sequence (whole entry): T1 sequence (P06401 whole entry)

[3] = Thermodynamic solubility of the compound in 0.1 M phosphate buffer at pH 7.4 after 24 hrs; assay type: physicochemical; details: read-out: Therm_solubility
[4] = Clearance in Han Wistar rat at 2 umol/kg, iv and 5 umol/kg, po; assay type: ADME, organism-based; details: in vivo
Estrogen receptor [5] = target: T3, Estrogen receptor (Homo sapiens, UniProt P03372)
T3 sequence (P03372 whole entry): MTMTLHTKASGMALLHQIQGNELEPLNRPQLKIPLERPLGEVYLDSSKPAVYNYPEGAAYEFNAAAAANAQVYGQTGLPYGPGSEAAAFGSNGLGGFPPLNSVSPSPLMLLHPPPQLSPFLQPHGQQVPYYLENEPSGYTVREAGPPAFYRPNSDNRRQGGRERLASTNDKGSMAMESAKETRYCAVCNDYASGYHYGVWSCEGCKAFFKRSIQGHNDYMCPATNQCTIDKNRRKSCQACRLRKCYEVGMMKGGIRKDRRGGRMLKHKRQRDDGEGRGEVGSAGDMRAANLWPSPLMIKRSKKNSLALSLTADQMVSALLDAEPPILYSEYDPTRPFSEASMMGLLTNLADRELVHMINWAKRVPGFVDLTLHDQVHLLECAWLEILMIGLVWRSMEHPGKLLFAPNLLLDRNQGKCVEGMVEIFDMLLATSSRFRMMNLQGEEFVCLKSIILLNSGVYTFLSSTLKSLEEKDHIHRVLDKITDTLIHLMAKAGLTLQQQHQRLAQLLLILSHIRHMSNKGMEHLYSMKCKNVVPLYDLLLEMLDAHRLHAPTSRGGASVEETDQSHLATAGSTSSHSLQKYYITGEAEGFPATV
Description: Binding affinity to ERalpha receptor (unknown origin)

[6] = Intrinsic clearance in rat cryopreserved hepatocytes assessed per 10^6 cells; assay type: ADME, cell-based, Hepatocyte; details: read-out: CLH
[7] = Volume of distribution at steady state in Han Wistar rat at 2 umol/kg, iv and 5 umol/kg, po; assay type: ADME, organism-based; details: in vivo, read-out: Vdss
Estrogen receptor [8] = target: T3, Estrogen receptor; remark: listed apart in the source
Description: Antagonist activity at ERalpha receptor in human MCF7 cells

[9] = Lipophilicity, log D of the compound at pH 7.4; assay type: physicochemical; details: buffer
[10] = Intrinsic clearance in human cryopreserved hepatocytes assessed per 10^6 cells; assay type: ADME, cell-based, Hepatocyte; details: read-out: CLH
[11] = Oral bioavailability in Han Wistar rat at 5 umol/kg; assay type: ADME, organism-based; details: in vivo
[12] = Fraction unbound in Han Wistar rat 10% plasma by equilibrium dialysis; assay type: ADME, cell-free
Progesterone receptor [13] = target: T1, Progesterone receptor; assay: Binding affinity to progesterone receptor (unknown origin)
Glucocorticoid receptor = target: T4, Glucocorticoid receptor (Homo sapiens, UniProt P04150); assay: Binding affinity to glucocorticoid receptor (unknown origin); details: read-out: pIC50 (converted)
T4 sequence (P04150 whole entry): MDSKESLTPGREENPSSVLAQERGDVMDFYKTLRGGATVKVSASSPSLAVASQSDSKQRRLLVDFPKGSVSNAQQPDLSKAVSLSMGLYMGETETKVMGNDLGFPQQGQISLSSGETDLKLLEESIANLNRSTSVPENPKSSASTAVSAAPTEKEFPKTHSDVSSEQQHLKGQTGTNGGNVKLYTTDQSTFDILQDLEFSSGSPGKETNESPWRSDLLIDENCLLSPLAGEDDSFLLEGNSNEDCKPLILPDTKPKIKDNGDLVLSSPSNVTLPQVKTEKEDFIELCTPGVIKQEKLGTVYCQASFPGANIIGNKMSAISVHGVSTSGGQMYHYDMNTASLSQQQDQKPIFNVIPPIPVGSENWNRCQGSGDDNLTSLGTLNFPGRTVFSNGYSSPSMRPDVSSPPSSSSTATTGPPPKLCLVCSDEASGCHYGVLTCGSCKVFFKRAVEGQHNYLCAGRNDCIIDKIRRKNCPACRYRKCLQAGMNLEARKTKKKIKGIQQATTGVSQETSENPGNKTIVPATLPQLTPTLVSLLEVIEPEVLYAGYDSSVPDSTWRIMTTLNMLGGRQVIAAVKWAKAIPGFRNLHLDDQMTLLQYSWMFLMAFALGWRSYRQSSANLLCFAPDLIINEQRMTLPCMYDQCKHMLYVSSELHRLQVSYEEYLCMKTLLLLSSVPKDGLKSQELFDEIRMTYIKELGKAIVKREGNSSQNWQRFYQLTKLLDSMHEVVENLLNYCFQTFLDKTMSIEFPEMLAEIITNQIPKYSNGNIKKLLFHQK

Androgen receptor = target: T5, Androgen receptor (Homo sapiens, UniProt P10275); assay: Binding affinity to androgen receptor (unknown origin); details: read-out: pIC50 (converted)
T5 sequence (P10275 whole entry): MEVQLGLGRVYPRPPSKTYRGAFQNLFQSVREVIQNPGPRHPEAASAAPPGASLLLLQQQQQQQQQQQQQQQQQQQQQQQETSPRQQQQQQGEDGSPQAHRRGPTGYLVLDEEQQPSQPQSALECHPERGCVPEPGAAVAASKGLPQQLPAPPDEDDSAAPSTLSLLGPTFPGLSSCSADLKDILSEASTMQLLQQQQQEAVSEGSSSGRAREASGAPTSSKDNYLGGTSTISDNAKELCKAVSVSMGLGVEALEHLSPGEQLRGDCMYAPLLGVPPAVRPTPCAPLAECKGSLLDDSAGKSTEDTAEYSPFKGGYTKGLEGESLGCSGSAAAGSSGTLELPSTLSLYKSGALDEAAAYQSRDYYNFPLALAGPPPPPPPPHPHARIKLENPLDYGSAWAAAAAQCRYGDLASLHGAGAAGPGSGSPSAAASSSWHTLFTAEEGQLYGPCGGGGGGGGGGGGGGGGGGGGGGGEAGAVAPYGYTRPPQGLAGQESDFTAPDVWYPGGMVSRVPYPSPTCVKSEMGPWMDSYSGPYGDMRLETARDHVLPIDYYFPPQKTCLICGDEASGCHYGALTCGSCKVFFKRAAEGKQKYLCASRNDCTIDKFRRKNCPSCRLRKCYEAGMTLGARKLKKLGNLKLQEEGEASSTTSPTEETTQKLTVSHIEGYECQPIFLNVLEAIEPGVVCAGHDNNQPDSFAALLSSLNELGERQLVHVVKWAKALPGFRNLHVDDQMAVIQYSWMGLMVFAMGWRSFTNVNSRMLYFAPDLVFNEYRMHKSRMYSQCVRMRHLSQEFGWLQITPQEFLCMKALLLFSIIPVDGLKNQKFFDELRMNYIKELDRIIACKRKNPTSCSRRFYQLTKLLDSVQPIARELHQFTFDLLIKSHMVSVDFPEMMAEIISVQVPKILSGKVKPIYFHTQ

[14] = Fraction unbound in human 10% plasma by equilibrium dialysis; assay type: ADME, cell-free

| SMILES | IC50 (MCF7) [nM] | IC50 (Progesterone receptor [1]) [nM] | IC50 (Estrogen receptor [5]) [nM] | IC50 (Estrogen receptor [8]) [nM] | also measured |
| --- | --- | --- | --- | --- | --- |
| CCC(=C(c1ccc(O)cc1)c1ccc(OCCN(C)C)cc1)c1ccccc1 | 0.537 | > 100000 |  |  |  |
| CC/C(=C(\c1ccc(O)cc1)c1ccc(/C=C/C(=O)O)cc1)c1ccccc1 |  | > 31600 |  |  | percent agonist activity [2]: inactive |
| C[C@@H]1Cc2c([nH]c3ccc(O)cc23)[C@@H](c2ccc(Cl)cc2)N1CCO | > 31600 | 33.1 | 22.4 | 43.7 |  |
| OCCN1CCc2c([nH]c3ccccc23)C1c1ccc(Cl)cc1 (racemic) |  | > 100000 | 2040 | 1170 | IC50 (Progesterone receptor [13]): > 31600 nM; solubility thermodynamic at 24 h [3]: 15 µM (≈ 4.9 µg/mL); hepatocyte CLint [6]: 300 µL/min/1e6 cells; IC50 (Glucocorticoid receptor): > 31600 nM; logD [9]: 3.7; hepatocyte CLint [10]: 70 µL/min/1e6 cells; fraction unbound [12]: 0.045; IC50 (Androgen receptor): > 31600 nM |
| C[C@@H]1Cc2c([nH]c3ccccc23)[C@@H](c2ccc(Cl)cc2)N1CCC(=O)O | > 25100 | > 100000 | 1780 | 776 | percent agonist activity [2]: 15% |
| C[C@H](CO)CN1[C@H](c2ccc(/C=C/C(=O)O)cc2)c2[nH]c3ccccc3c2C[C@H]1C | 22.4 | > 100000 | 69.2 | 46.8 | solubility thermodynamic at 24 h [3]: > 1400 µM; hepatocyte CLint [6]: 21 µL/min/1e6 cells; fraction unbound [14]: 0.046; logD [9]: 1.6; hepatocyte CLint [10]: 26 µL/min/1e6 cells; fraction unbound [12]: 0.091 |
| C[C@]12CC[C@@H]3c4ccc(O)cc4C[C@@H](CCCCCCCCC[S+]([O-])CCCC(F)(F)C(F)(F)F)[C@H]3[C@@H]1CC[C@@H]2O (some centres not stated) [FULVESTRANT] | 0.1 | > 100000 |  |  |  |
| C[C@@H]1Cc2c([nH]c3ccccc23)[C@@H](c2ccc(/C=C/C(=O)O)cc2)N1CCO | 813 | > 100000 | 692 | 1320 |  |
| C[C@@H](CO)CN1[C@H](c2ccc(/C=C/C(=O)O)cc2)c2[nH]c3ccccc3c2C[C@H]1C |  | > 100000 | 97.7 | 45.7 |  |
| C[C@@H]1Cc2c([nH]c3ccccc23)[C@@H](c2ccc(/C=C/C(=O)O)cc2)N1CC(C)(C)F | 0.324 | > 3160 |  |  |  |

Further lines, with some results ahead:

| IC50 (MCF7) [nM] | IC50 (Progesterone receptor [1]) [nM] | IC50 (Estrogen receptor [5]) [nM] | IC50 (Estrogen receptor [8]) [nM] | SMILES | also measured |
| --- | --- | --- | --- | --- | --- |
|  | > 31600 | 13800 | 3720 | O=C(O)CCN1CCc2c([nH]c3ccccc23)C1c1ccc(Cl)cc1 (racemic) | solubility thermodynamic at 24 h [3]: > 1600 µM; clearance [4]: 4 mL/min/kg; hepatocyte CLint [6]: 29 µL/min/1e6 cells; Vd [7]: 0.6 L/kg; logD [9]: 1.6; hepatocyte CLint [10]: 19 µL/min/1e6 cells; bioavailability [11]: 85%; fraction unbound [12]: 0.072 |
| 295 | > 100000 |  |  | CC/C(=C(\c1ccccc1)c1ccc(/C=C/C(=O)O)cc1)c1ccccc1 | percent agonist activity [2]: inactive |
| 0.229 | > 3160 | 0.708 | 0.417 | CC(C)CN1[C@H](c2c(F)cc(/C=C/C(=O)O)cc2F)c2[nH]c3ccccc3c2C[C@H]1C |  |
| 57.5 |  |  |  | CC/C(=C(\c1ccccc1)c1ccc(OCCN(C)C)cc1)c1ccccc1 [TAMOXIFEN] |  |
| > 31600 | 12.9 | 70.8 | 30.2 | C[C@@H]1Cc2c([nH]c3ccccc23)[C@@H](c2ccc(Cl)cc2)N1C[C@H](C)C(=O)O | solubility thermodynamic at 24 h [3]: 1440 µM (≈ 551 µg/mL); clearance [4]: 14 mL/min/kg; hepatocyte CLint [6]: 82 µL/min/1e6 cells; fraction unbound [14]: 0.015; Vd [7]: 0.34 L/kg; logD [9]: 2.8; hepatocyte CLint [10]: 23 µL/min/1e6 cells; bioavailability [11]: 42%; fraction unbound [12]: 0.032 |
| 13800 | > 100000 | 39.8 | 85.1 | C[C@@H]1Cc2c([nH]c3ccccc23)[C@@H](c2ccc(Cl)cc2)N1CCO | percent agonist activity [2]: 15% |
